Measured values reported in the OPERA property sets (Mansouri et al. 2018).

In the case of CSC(C)=NOC(=O)N(C)SN(C)C(=O)c1ccc(Cl)cc1, the logP is reported as 2.6.
Compound C=CC(CC)OC(N)=O (configuration not stated) has a logP of 1.09.
Brc1cccc(Br)c1NC1=NCCN1 showed a logP of 1.96.
With O=c1cc(-c2ccc([N+](=O)[O-])o2)sc(=O)[nH]1 the logP was 0.55.
Work on Clc1ccc(C2NCCS2)cc1 (configuration not stated) yielded a logP of 2.1.
Work on CCCCCCCCCCCCCCCC[n+]1cc(C)cc(C)c1.[I-] yielded a logP of 3.35.
Work on COc1cn[nH]c1 yielded a logP of 0.37.
CNC(=O)NCCSCc1[nH]cnc1C gave a logP of -0.06.
Work on CC(C)CNCNC(=O)c1ccccc1 yielded a logP of 1.73.
Compound CCN(CC)c1cc(N)[n+]([O-])c(N)n1 has a logP of 1.16.
For O=C(NC(CO)C(O)c1ccccc1)C(Cl)Cl (configuration not stated), the logP was 0.94.
For CN1C(=O)CN=C(c2ccccc2F)c2cc(I)ccc21, the logP was 3.14.
Compound CCCOn1c(=O)[nH]c(CCC)c(Br)c1=O has a logP of 1.73.
Compound CC12CCC(=O)C=C1C1(CC1)CC1C2CCC2(C)C1CCC21CCC(=O)O1 (configuration not stated) has a logP of 3.15.
In the case of NC(=O)c1ccc(Cl)nn1, the logP is reported as 0.
CCOC(=O)c1c(OCC)cc(Cc2cnc(N)nc2N)cc1OCC showed a logP of 2.28.
Work on COc1ccc(N=NN(C)C(C)=O)cc1 yielded a logP of 2.61.
Work on NNC(=O)c1ccccc1I yielded a logP of 0.47.
CON=CCCc1ccccc1 showed a logP of 2.14.
With CN(N=O)C(=O)N(C)c1ccccc1 the logP was 1.58.
Compound CS(=O)(=O)CCn1ccnc1[N+](=O)[O-] has a logP of -1.3.
With CNc1nc(N(C)C)nc(N(C)C)n1 the logP was 1.83.
Compound O=[N+]([O-])C=Cc1cc([N+](=O)[O-])ccc1Cl has a logP of 2.23.
With CC1=C(C(N)=O)SCCO1 the logP was -0.22.
In the case of CC1=NS(=O)(=O)c2ccc(Cl)cc2N1, the logP is reported as 1.21.
O=C(CN1CCCCC1)Nc1ccc(Cl)cc1 showed a logP of 3.34.
For C#CC(C=C)(CC)OC(N)=O (configuration not stated), the logP was 1.09.
CCCCCCCCCCCC[n+]1cc(C)cc(C)c1.[I-] showed a logP of 1.91.
In the case of CCN(CC)CCNC(=O)c1cc(Cl)cc(Cl)c1, the logP is reported as 3.77.
For NS(=O)(=O)NS(=O)(=O)Nc1ccccc1, the logP was 0.02.
CCCCCCCCCCCCS(=O)(=O)[O-].[Na+] gave a logP of 0.96.
With COc1cccc(NC=O)c1 the logP was 1.25.
For FC(F)(F)c1nc2c(Cl)ccc(Cl)c2[nH]1, the logP was 2.87.
With COc1c(N(C)C)cc(Cc2cnc(N)nc2N)cc1N(C)C(C)=O the logP was 1.01.
Nc1cccc(O[Si]23OCCN(CCO2)CCO3)c1 gave a logP of -1.15.
In the case of COc1c(OCc2ccccc2)cc(Cc2cnc(N)nc2N)cc1OCc1ccccc1, the logP is reported as 3.89.
With O=C1OC(C2CCCCC2)c2ccccc21 (configuration not stated) the logP was 3.34.
NS(=O)(=O)c1ccccc1Cl showed a logP of 0.74.
For COC1C(Cl)C(Cl)C(Cl)C(OC)C1OC (configuration not stated), the logP was 1.87.
CNP(=O)(OC)Oc1cc(Cl)c(Cl)cc1Cl (configuration not stated) showed a logP of 3.06.
Work on CCCNP(=O)(OC)Oc1cc(Cl)c(Cl)cc1Cl (configuration not stated) yielded a logP of 3.7.
For NNC(=O)c1cccc(N)c1, the logP was -0.86.
CSc1nnc(C)c(=O)n1N showed a logP of -0.16.
In the case of Cc1cc(C)c(NC2=NCCN2)c(C)c1, the logP is reported as 2.32.
CCCCCCCCCCCCCCCC[n+]1ccc(C)c(C)c1.[I-] gave a logP of 3.16.
Compound CCc1n[nH]c(=O)[nH]c1=O has a logP of 0.22.
Work on CCOC(=O)c1ccc2cccccc1-2 yielded a logP of 3.83.
Work on COC(=O)C(C#N)=NNc1cc(Cl)cc(Cl)c1 yielded a logP of 4.5.
In the case of NNc1ncnc2ccccc12, the logP is reported as 1.67.
With FC(F)(F)COC1C(Cl)C(Cl)C(Cl)C(Cl)C1Cl (configuration not stated) the logP was 4.15.
Compound CCCNc1ccc(C(=O)OCCN(C)C)cc1 has a logP of 3.15.
For Cc1cc(C)cc(OC(=O)CNC(=O)c2ccccc2)c1, the logP was 3.4.
Cc1csc(C=Cc2ccc([N+](=O)[O-])o2)n1 showed a logP of 1.53.
Compound CCCCCC[n+]1ccccc1C.[I-] has a logP of -1.71.
For CC1CN(C(=O)c2ccccc2)CC(C)N1N=O (configuration not stated), the logP was 1.04.
Work on CS(=O)(=O)c1cccc(OCC(=O)O)c1 yielded a logP of 0.01.
CSc1cccc(N=NN(C)C)c1 gave a logP of 2.98.
CCCCN(SN(C)C(=O)ON=C(C)SC)C(C)=O showed a logP of 2.4.
With CSc1nnc(C(C)C)c(=O)n1N the logP was 1.01.
Work on COc1ccccc1C(=O)NN yielded a logP of 0.25.
CCC(C)C(=O)NN (configuration not stated) gave a logP of -0.33.
With CC(=O)OCC(Cn1ccnc1[N+](=O)[O-])OC(C)=O (configuration not stated) the logP was -0.05.
For CCOP(=O)(OCC)Oc1ccc(SC)c(Cl)c1, the logP was 2.94.
In the case of O=NN(CCCl)C(=O)NCCCCNC(=O)N(CCCl)N=O, the logP is reported as 0.9.
With S=C1CCCCCCCN1 the logP was 1.44.
In the case of CCC(C)N(C)/N=N/c1nc[nH]c1C(N)=O (configuration not stated), the logP is reported as 1.08.
For CN(Cc1ccc([N+](=O)[O-])cc1)N=Nc1ccc(C(=O)O)cc1, the logP was 4.03.
CN(C)C(=O)c1ccoc1 gave a logP of 0.24.
CS(=O)(=O)c1cccc(CC(=O)O)c1 gave a logP of 0.06.
Cc1cccc2nccc(=O)n12 showed a logP of 0.74.
Work on CCOC(=O)C(=Cc1ccc2c(c1)OCO2)C(C)=O yielded a logP of 2.35.
For N=C(N)NC(=O)Nc1ccc([N+](=O)[O-])c(Cl)c1, the logP was 1.79.
Work on CCN1C(=O)CN=C(c2ccccc2)c2cc(N)ccc21 yielded a logP of 1.81.
CC1(C)SC2C(NC(=O)Cc3ccc(Cl)cc3Cl)C(=O)N2C1C(=O)O (configuration not stated) showed a logP of 3.3.
In the case of Nc1nc2ccccc2o1, the logP is reported as 1.53.
Work on C=CCc1c(OCC)cc(Cc2cnc(N)nc2N)cc1OCC yielded a logP of 3.08.
Clc1cccc(-c2ccccc2)c1Cl showed a logP of 5.02.
